Consider 1 sequence from PMC8546421, “Molecular modelling of the FOXO4-TP53 interaction to design senolytic peptides for the elimination of senescent cancer cells” (EBioMedicine, 2021).

The subject of one assay is dividing A375 cells. The assay is described as follows: Orthotopic xenograft of dividing luciferase A375 cells, radiance. The assay is classed as in vivo, mouse. The settings on record: dividing A375 cells injected orthotopically, locally injected twice, imaged one day later; ES2 n=5, saline n=9.
The next assay addresses T1, TP53 (Homo sapiens, UniProt P04637).
T1 construct: purchased Millipore Sigma Aldrich 23-034
The assay is described as follows: Bio-layer Interferometry, TP53. Type of assay: binding. To be noted: BLI. How it is done:
(§1) Bio-layer Interferometry (BLI) measurements were performed on a ForteBio Octet RED384 instrument (Molecular Devices) using ForteBio Data Acquisition software 9.0 and ForteBio biosensors (Molecular Devices) according to the manufacturer's instructions. Kinetic assays were carried out at 30°C using settings of Standard Kinetics Acquisition rate (5.0 Hz, averaging by 20) at a sample plate shake speed of 1,000 rpm. Streptavidin sensors (SA) (ForteBio) equilibrated in PBS were mock loaded (no ligand reference sensor) or loaded with 50 nM of N- terminal biotinylated ES2 peptide (New England Peptide, Inc.) with an approximate response of 1 nm. Ligand loaded SA sensors equilibrated in Kinetics buffer (ForteBio) to establish a baseline, were dipped into wells containing 2-fold dilutions of TP53 (Millipore Sigma Aldrich; Cat# 23-034), FOXO4 (OriGene Technologies; Cat# TP760655) or GFP analytes in kinetics buffer, or buffer alone (reference sample). Increasing concentrations of analytes ranging from 6.2 - 200 nM were allowed to associate for 240 secs, followed by 600 sec dissociation step where the TP53/FOXO4-bound sensors were washed with kinetics buffer. Binding curves were analysed using ForteBio Data Analysis HT 10.0 evaluation software. To control for background signal and non-specific binding, raw experimental data were processed by subtracting reference biosensor and reference sample (no ligand). Processed data from at least six different concentrations of analyte binding were globally fit to a 1:1 Langmuir binding model to calculate the association rate constant ka, the dissociation rate constant kd to achieve R^2 > 0.90. Equilibrium dissociation constants KD which defines the strength of the interaction or affinity was calculated as the kinetic dissociation rate constant divided by the kinetic association rate constant.
On the technique in general: In BLI a coated tip is dipped into the sample, and binding shifts an interference pattern.

A further assay addresses GFP (Aequorea victoria, UniProt P42212). The assay is described as follows: Bio-layer Interferometry, GFP. To be noted: BLI. The assay is classed as binding. How it is done: as §1, with “Increasing concentrations of analytes ranging from 6.2 - 200 nM were allowed to associate for 240 secs, followed by 600 sec dissociation step where the TP53/FOXO4-bound sensors were washed with kinetics buffer.” left out, “To control for background signal and non-specific binding, raw experimental data were processed by subtracting reference biosensor and reference sample (no ligand). Processed data from at least six different concentrations of analyte binding were globally fit to a 1:1 Langmuir binding model to calculate the association rate constant ka, the dissociation rate constant kd to achieve R^2 > 0.90.” left out

The next assay has as its system FOXO4-TP53 interaction. As to the kind of experiment: Co-immunoprecipitation of Myc-FOXO4 for p53. The assay is classed as cell-based, human. To be noted: senescent HCT116-Myc-FOXO4 cells, 8 µM ES2, 1 hour. How it is done:
HCT116 cells were transduced with FOXO4 (NM_005938) human tagged ORF Lentiviral Particles (Origene, Cat# RC213185L1V) at 10^6 TU/mL. Cells were then cultured for seven passages. HCT116-Myc-FOXO4 were made senescent using 200 nM Doxorubicin at the final cell concentration of 24 million cells. Dividing cells were plated at concentration of 80 million cells. The following day, cells were treated with 8 µM ES2 for 0 or 1 hour. Nuclear protein was then isolated using NE-PER™ Nuclear and Cytoplasmic Extraction Reagents kit (Cat# 78833) then quantified via Pierce^TM BCA Protein Assay Kit (Cat# 23225) according to manufacturer's instructions. 400 µg of each nuclear lysate and 10 µL of provided positive control was used in the Thermo Scientific™ Pierce™ c-Myc-Tag IP/Co-IP Kit (Cat# 23620). The eluted protein (20 µL) was then loaded onto Bolt™ 4 to 12%, Bis-Tris, 1.0 mm, Mini Protein Gel, 10-well (Cat# NW04120BOX) and run at 120V for 60 minutes in 1X Invitrogen™ Bolt™ MOPS SDS Running Buffer using the Mini Gel Tank (Cat. A25977). Protein was then transferred onto 0.4 µm PVDF according to manufacturer protocol. The membrane was then blocked in 5% non-fat milk in 1x TBS-T (Cat# 03-500-537) for 60 minutes. […]

“Also recorded” adds a separate entry of the source. Where two headings read alike, the source gives them in different places. Where no end group is shown, it is not given here. A value given as a limit tells only on which side of the number the result lay.

T1 sequence (P04637 whole entry): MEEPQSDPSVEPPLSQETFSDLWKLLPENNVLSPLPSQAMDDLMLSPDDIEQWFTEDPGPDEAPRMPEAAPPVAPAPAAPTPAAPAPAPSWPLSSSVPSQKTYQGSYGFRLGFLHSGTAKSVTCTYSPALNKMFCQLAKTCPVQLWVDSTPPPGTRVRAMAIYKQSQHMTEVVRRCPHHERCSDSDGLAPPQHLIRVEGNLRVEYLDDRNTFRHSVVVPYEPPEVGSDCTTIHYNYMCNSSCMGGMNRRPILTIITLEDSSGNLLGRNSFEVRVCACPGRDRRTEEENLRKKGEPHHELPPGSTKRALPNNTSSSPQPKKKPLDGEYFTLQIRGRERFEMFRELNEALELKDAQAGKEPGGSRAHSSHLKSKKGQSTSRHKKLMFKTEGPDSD

For orientation: Kd means the equilibrium constant for the complex coming apart. High values mean a looser complex, low ones a tighter complex. For the sequence “PRKGGRRRRAWGRRRRRRRRRRRRRRAPRKRLTLA [ES2]”, in the assay with dividing A375 cells, the “elimination of dividing cancer cells in vivo (radiance)” value is recorded as “no difference in gain of radiance; also recorded: ineffective at eliminating dividing cancer cells”. For the same sequence, the kon stood at 38000 M⁻¹ s⁻¹ on TP53 (1:1 Langmuir binding model, read-out: association rate ka) and 38000 M⁻¹ s⁻¹ on TP53 (biotinylated ES2 immobilized on streptavidin sensors, analyte 6.25-200 nM, 30°C, global 1:1 Langmuir fit, read-out: ka). The same sequence yielded a kd on TP53 (biotinylated ES2 immobilized on streptavidin sensors, analyte 6.25-200 nM, 30°C, global 1:1 Langmuir fit) of 8.7e-05 ± 6.3e-07 s⁻¹. In addition, the Kd on TP53 (biotinylated ES2 immobilized on streptavidin sensors, analyte 6.25-200 nM, 30°C, kd/ka) was 2.3 ± 0.02 nM; at GFP (biotinylated ES2 on streptavidin sensors, 30°C, NB – no binding), above 200 nM. The “binding of GFP (in words)” value at GFP (six 2-fold dilutions of GFP starting at 200nM) is given as “minimal binding of GFP; also recorded: no binding was detected”. Besides, the “TP53 band co-immunoprecipitated with Myc-FOXO4” value in the assay with FOXO4-TP53 interaction is recorded as “a band at 53kDa that is eliminated after treating with ES2”.
